Consider 60 molecules from US20230123334A1, “AMINO LIPID COMPOUND, PREPARATION METHOD THEREFOR, AND APPLICATION THEREOF” (SHENZHEN SHENXIN BIOTECHNOLOGY CO., LTD., priority 2020, published 2023).

Structures are written as SMILES.

The assay relates to HEK293 cells. Briefly: Preliminary screening as DNA vectors, GFP transfection of HEK293 cells. The format is cell-based. To be noted: amino lipid/DOPE liposome with 75 ng plasmid DNA (psin-EGFP-IRES-Puro); number of GFP-expressing cells divided by total nuclei (Hoechst). The method, then:
Cell line: HEK293 cells (ATCC CRL-1573™)
Medium: DMEM supplemented with 10% fetal bovine serum (Invitrogen)
Mode of screening: cell transfection on 96-well plates
Detection (readout): percentage of the number of GFP fluorescent cells relative to the total number of cells (the total number of cells was measured using nucleus dye Hoechst—see FIG. 2). Lipofectamine2000 (Invitrogen) was used as positive control, according to the manufacturer's instructions.
Method: an 8-channel pipette was used for sample addition. The contents shown were for a single well of a 96-well flat plate.
1. The compound (0.01 mmol) prepared in Example 1 was dissolved in 1 mL of anhydrous ethanol. After ultrasonically dissolved, 10 μL of the resultant amino lipid solution in ethanol was taken and mixed with 5 μL of DOPE solution in ethanol (0.01 m), and then to the obtained mixture was added 35 μL of 0.2M sodium acetate buffer (pH 5.6), and 50 μL of liposome solution was prepared by vortex at a constant rotating speed for 30 s. 4 μL was taken from the 50 μL liposome solution and added to 46 μL of 0.02M sodium acetate buffer (pH 5.6), and the final liposome solution was formed by vortex at a constant rotating speed for 30 s. 5 μL was taken from the final liposome solution and mixed with 75 ng plasmid DNA (psin-EGFP-IRES-Puro, Clontech) dissolved in 5 μL of 0.02 M sodium acetate buffer, and was allowed to stay at room temperature for 30 min to form a lipid/DNA transfection complex.
2. 10 μL of the lipid/DNA transfection complex was incubated at room temperature for 30 min, followed by addition of 90 μL of fresh resuspended cells (3-5×10^4 cells) and mixing with a pipette. 100 μL of cells+lipid/DNA complex was transferred to separate wells of a 96-well culture plate immediately, and placed in an incubator containing 5% CO2 at 37° C.
3. Hoechst33258 (Invitrogen) was added at a final concentration of 0.2 μg/mL to the cells 20 to 24 hours after initial cell transfection, and cultured in darkness at 37° C. for 15 min. Afterwards, the cells were washed once with a PBS solution, and then added with medium for culture for 20 to 24 h.
4. The cells were placed in a high-throughput confocal microscope (Molecular Devices ImageXpress), and four visual fields of the image of the cells were captured for each well, and images at three laser wavelengths were captured for each sample: bright field images of cells (FIG. 2(a) and FIG. 2(b)), Hoechst-staining images showing total nuclei (FIG. 2(c) and FIG. 2(d)) and GFP images showing success in transfection with the plasmid DNA and the expression of GFP (FIG. 2(e) and FIG. 2(f)). MetaXpress software was used to separately count the cells in the Hoechst-staining images and GFP images, and then the number of cells expressing GFP was divided by the total number of nuclei to give the absolute cell transfection efficiency. The absolute transfection efficiency was calculated as follows: […]

As to `CCCCCCCSc1nc(NCCN(C)C)nc(SCCCCCC)n1` [S6S7 D1], the “Absolute DNA transfection efficiency in HEK293 cells” value (“Absolute DNA transfection efficiency” below) came to 0.5%.

As for `CCCCCCCSc1nc(NCCN2CCOCC2)nc(SCCCCCC)n1` [S6S7 D2], the “Absolute DNA transfection efficiency” value stood at 1.2%.

`CCCCCCCSc1nc(NCCN2CCCC2)nc(SCCCCCC)n1` [S6S7 D3]: the “Absolute DNA transfection efficiency” value is listed as 1.4%.

Take `CCCCCCCSc1nc(NCCN2CCCCC2)nc(SCCCCCC)n1` [S6S7 D4]: the “Absolute DNA transfection efficiency” value came out at 2.0%.

On to `CCCCCCCSc1nc(NCCN2CCN(C)CC2)nc(SCCCCCC)n1` [S6S7 D5], for which the “Absolute DNA transfection efficiency” value amounted to 5.7%.

As for `CCCCCCCSc1nc(NCCCN(C)C)nc(SCCCCCC)n1` [S6S7 D6], the “Absolute DNA transfection efficiency” value was found to be 6.9%.

In the case of `CCCCCCCSc1nc(NCCN(CC)CC)nc(SCCCCCC)n1` [S6S7 D7], the “Absolute DNA transfection efficiency” value was 22.2%.

For `CCCCCCCSc1nc(NCCCN2CCOCC2)nc(SCCCCCC)n1` [S6S7 D8], the “Absolute DNA transfection efficiency” value turned out to be 0.0%.

Regarding `CCCCCCCSc1nc(NCCCN2CCN(C)CC2)nc(SCCCCCC)n1` [S6S7 D9], the “Absolute DNA transfection efficiency” value came to 7.5%.

Regarding `CCCCCCCSc1nc(NCC2CCN(C)CC2)nc(SCCCCCC)n1` [S6S7 D10], the “Absolute DNA transfection efficiency” value was found to be 21.6%.

In the case of `CCCCCCCCSc1nc(NCCN(C)C)nc(SCCCCCC)n1` [S6S8 D1], the “Absolute DNA transfection efficiency” value was 1.9%.

As for `CCCCCCCCSc1nc(NCCN2CCOCC2)nc(SCCCCCC)n1` [S6S8 D2], the “Absolute DNA transfection efficiency” value is 2.5%.

Regarding `CCCCCCCCSc1nc(NCCN2CCCC2)nc(SCCCCCC)n1` [S6S8 D3], the “Absolute DNA transfection efficiency” value turned out to be 2.8%.

For `CCCCCCCCSc1nc(NCCN2CCCCC2)nc(SCCCCCC)n1` [S6S8 D4], the “Absolute DNA transfection efficiency” value worked out at 1.3%.

`CCCCCCCCSc1nc(NCCN2CCN(C)CC2)nc(SCCCCCC)n1` [S6S8 D5]: the “Absolute DNA transfection efficiency” value amounted to 15.3%.

With `CCCCCCCCSc1nc(NCCCN(C)C)nc(SCCCCCC)n1` [S6S8 D6], the “Absolute DNA transfection efficiency” value is recorded as 7.4%.

As for `CCCCCCCCSc1nc(NCCN(CC)CC)nc(SCCCCCC)n1` [S6S8 D7], the “Absolute DNA transfection efficiency” value turned out to be 15.0%.

With `CCCCCCCCSc1nc(NCCCN2CCOCC2)nc(SCCCCCC)n1` [S6S8 D8], the “Absolute DNA transfection efficiency” value was 0.6%.

On to `CCCCCCCCSc1nc(NCCCN2CCN(C)CC2)nc(SCCCCCC)n1` [S6S8 D9], for which the “Absolute DNA transfection efficiency” value came out at 10.0%.

For `CCCCCCCCSc1nc(NCC2CCN(C)CC2)nc(SCCCCCC)n1` [S6S8 D10], the “Absolute DNA transfection efficiency” value turned out to be 24.1%.

As to `CCCCCCCCCSc1nc(NCCN(C)C)nc(SCCCCCC)n1` [S6S9 D1], the “Absolute DNA transfection efficiency” value is reported as 2.6%.

Turning to `CCCCCCCCCSc1nc(NCCN2CCOCC2)nc(SCCCCCC)n1` [S6S9 D2], the “Absolute DNA transfection efficiency” value is on record as 9.1%.

Turning to `CCCCCCCCCSc1nc(NCCN2CCCC2)nc(SCCCCCC)n1` [S6S9 D3], the “Absolute DNA transfection efficiency” value turned out to be 6.9%.

For the molecule `CCCCCCCCCSc1nc(NCCN2CCCCC2)nc(SCCCCCC)n1` [S6S9 D4], the “Absolute DNA transfection efficiency” value was 1.8%.

With `CCCCCCCCCSc1nc(NCCN2CCN(C)CC2)nc(SCCCCCC)n1` [S6S9 D5], the “Absolute DNA transfection efficiency” value is reported as 13.7%.

Turning to `CCCCCCCCCSc1nc(NCCCN(C)C)nc(SCCCCCC)n1` [S6S9 D6], the “Absolute DNA transfection efficiency” value came out at 7.1%.

For the molecule `CCCCCCCCCSc1nc(NCCN(CC)CC)nc(SCCCCCC)n1` [S6S9 D7], the “Absolute DNA transfection efficiency” value is 10.2%.

With `CCCCCCCCCSc1nc(NCCCN2CCOCC2)nc(SCCCCCC)n1` [S6S9 D8], the “Absolute DNA transfection efficiency” value is reported as 2.0%.

For `CCCCCCCCCSc1nc(NCCCN2CCN(C)CC2)nc(SCCCCCC)n1` [S6S9 D9], the “Absolute DNA transfection efficiency” value was determined as 8.4%.

For `CCCCCCCCCSc1nc(NCC2CCN(C)CC2)nc(SCCCCCC)n1` [S6S9 D10], the “Absolute DNA transfection efficiency” value was determined as 18.0%.

In the case of `CCCCCCCCCCSc1nc(NCCN(C)C)nc(SCCCCCC)n1` [S6S10 D1], the “Absolute DNA transfection efficiency” value is reported as 3.2%.

For the molecule `CCCCCCCCCCSc1nc(NCCN2CCOCC2)nc(SCCCCCC)n1` [S6S10 D2], the “Absolute DNA transfection efficiency” value was found to be 8.3%.

`CCCCCCCCCCSc1nc(NCCN2CCCC2)nc(SCCCCCC)n1` [S6S10 D3]: the “Absolute DNA transfection efficiency” value was 4.4%.

On to `CCCCCCCCCCSc1nc(NCCN2CCCCC2)nc(SCCCCCC)n1` [S6S10 D4], for which the “Absolute DNA transfection efficiency” value came to 4.5%.

As for `CCCCCCCCCCSc1nc(NCCN2CCN(C)CC2)nc(SCCCCCC)n1` [S6S10 D5], the “Absolute DNA transfection efficiency” value is on record as 12.4%.

On to `CCCCCCCCCCSc1nc(NCCCN(C)C)nc(SCCCCCC)n1` [S6S10 D6], for which the “Absolute DNA transfection efficiency” value stood at 20.9%.

`CCCCCCCCCCSc1nc(NCCN(CC)CC)nc(SCCCCCC)n1` [S6S10 D7]: the “Absolute DNA transfection efficiency” value was 7.7%.

In the case of `CCCCCCCCCCSc1nc(NCCCN2CCOCC2)nc(SCCCCCC)n1` [S6S10 D8], the “Absolute DNA transfection efficiency” value was found to be 0.0%.

As for `CCCCCCCCCCSc1nc(NCCCN2CCN(C)CC2)nc(SCCCCCC)n1` [S6S10 D9], the “Absolute DNA transfection efficiency” value is 7.9%.

In the case of `CCCCCCCCCCSc1nc(NCC2CCN(C)CC2)nc(SCCCCCC)n1` [S6S10 D10], the “Absolute DNA transfection efficiency” value is 14.9%.

Consider `CCCCCCCCCCCSc1nc(NCCN(C)C)nc(SCCCCCC)n1` [S6S11 D1], for which the “Absolute DNA transfection efficiency” value is 6.0%.

As to `CCCCCCCCCCCSc1nc(NCCN2CCOCC2)nc(SCCCCCC)n1` [S6S11 D2], the “Absolute DNA transfection efficiency” value was 18.7%.

For `CCCCCCCCCCCSc1nc(NCCN2CCCC2)nc(SCCCCCC)n1` [S6S11 D3], the “Absolute DNA transfection efficiency” value came to 12.4%.

For the molecule `CCCCCCCCCCCSc1nc(NCCN2CCCCC2)nc(SCCCCCC)n1` [S6S11 D4], the “Absolute DNA transfection efficiency” value is 6.2%.

Consider `CCCCCCCCCCCSc1nc(NCCN2CCN(C)CC2)nc(SCCCCCC)n1` [S6S11 D5], for which the “Absolute DNA transfection efficiency” value was determined as 32.7%.

Consider `CCCCCCCCCCCSc1nc(NCCCN(C)C)nc(SCCCCCC)n1` [S6S11 D6], for which the “Absolute DNA transfection efficiency” value turned out to be 32.1%.

Take `CCCCCCCCCCCSc1nc(NCCN(CC)CC)nc(SCCCCCC)n1` [S6S11 D7]: the “Absolute DNA transfection efficiency” value is 10.1%.

Regarding `CCCCCCCCCCCSc1nc(NCCCN2CCOCC2)nc(SCCCCCC)n1` [S6S11 D8], the “Absolute DNA transfection efficiency” value turned out to be 4.5%.

For `CCCCCCCCCCCSc1nc(NCCCN2CCN(C)CC2)nc(SCCCCCC)n1` [S6S11 D9], the “Absolute DNA transfection efficiency” value is 16.8%.

Take `CCCCCCCCCCCSc1nc(NCC2CCN(C)CC2)nc(SCCCCCC)n1` [S6S11 D10]: the “Absolute DNA transfection efficiency” value was 38.1%.

As for `CCCCCCCCCCCCSc1nc(NCCN(C)C)nc(SCCCCCC)n1` [S6S12 D1], the “Absolute DNA transfection efficiency” value worked out at 6.3%.

`CCCCCCCCCCCCSc1nc(NCCN2CCOCC2)nc(SCCCCCC)n1` [S6S12 D2]: the “Absolute DNA transfection efficiency” value came to 5.0%.

As for `CCCCCCCCCCCCSc1nc(NCCN2CCCC2)nc(SCCCCCC)n1` [S6S12 D3], the “Absolute DNA transfection efficiency” value is listed as 4.3%.

For the molecule `CCCCCCCCCCCCSc1nc(NCCN2CCCCC2)nc(SCCCCCC)n1` [S6S12 D4], the “Absolute DNA transfection efficiency” value turned out to be 3.0%.

Consider `CCCCCCCCCCCCSc1nc(NCCN2CCN(C)CC2)nc(SCCCCCC)n1` [S6S12 D5], for which the “Absolute DNA transfection efficiency” value came to 28.8%.

As for `CCCCCCCCCCCCSc1nc(NCCCN(C)C)nc(SCCCCCC)n1` [S6S12 D6], the “Absolute DNA transfection efficiency” value was determined as 13.6%.

On to `CCCCCCCCCCCCSc1nc(NCCN(CC)CC)nc(SCCCCCC)n1` [S6S12 D7], for which the “Absolute DNA transfection efficiency” value is recorded as 6.6%.

With `CCCCCCCCCCCCSc1nc(NCCCN2CCOCC2)nc(SCCCCCC)n1` [S6S12 D8], the “Absolute DNA transfection efficiency” value is reported as 7.5%.

With `CCCCCCCCCCCCSc1nc(NCCCN2CCN(C)CC2)nc(SCCCCCC)n1` [S6S12 D9], the “Absolute DNA transfection efficiency” value amounted to 9.4%.

Consider `CCCCCCCCCCCCSc1nc(NCC2CCN(C)CC2)nc(SCCCCCC)n1` [S6S12 D10], for which the “Absolute DNA transfection efficiency” value is listed as 24.4%.
